# Patent publication US12533425B2, “Methods and systems using peptides for targeting and mapping human nerves in image guided surgery, diagnostics and therapeutic delivery” (ALUME BIOSCIENCES, INC., priority 2019, dated 2026)
# “Also recorded” adds a separate entry of the source. Residues, ends and D or L forms follow the SMILES beside them. *: point of attachment. Fluorescein(5-Mal) = O=C1OC2(c3ccc(O)cc3Oc3cc(O)ccc32)c2ccc(N3C(=O)CC(*)C3=O)cc21
# What was measured:
# sciatic nerve = assay: In-vivo fluorescence imaging of sciatic nerve in mice after i.v. injection of FAM-labelled peptides; parameters: species or system mouse; details: 450 nmols i.v.
# Method: In-vivo fluorescence image of sciatic nerve of 6 month old SKH1-Elite mice injected i.v. with 450 nmols of FAM-HNP401 (A) or FAM-NP41 (B) and imaged on the Lumar imaging scope 2 h post injection. […] Each mouse was injected i.v. with 100 nmol of FAM-HNP401 prior to blood collection at 1 min, 10 min, 20 min, 30 min, 1 h and 2 h timepoints (H).
# In-vivo fluorescence image of sciatic nerves from 6 month old SKH1 mice that had been previously intravenously injected with 450 nmols of FAM-HNP401 [˜48.4 mg/kg] (A) or FAM-NP41 [˜39 mg/kg] (B). […] Each mouse was injected intravenous with 100 nmol [˜11 mg/kg] of FAM-HNP401 prior to blood collection at 1 min, 10 min, 20 min, 30 min, 1 h and 2 h time points.
# human sural nerve = assay: Topical application of FAM-labelled peptides on sections of human sural nerve and temporalis muscle; format: binding
# Excerpt: To determine the affinity of phage selected peptides for binding to human nerve they were chemically synthesized by solid-phase synthesis and labeled with fluorescein at the C-terminus via a GGC linker. Peptides were topically applied to sectioned human sural nerve and human temporalis muscle to determine nerve to muscle contrast. […] To confirm binding and contrast of HNP401 for additional nerve types binding was compared in nerve and muscle with both HNP401 and NP41 on facial brachial plexus nerve (FIG. 9). […] FAM-HNP401 was additionally tested topically on ex-vivo tissue for labeling of mouse facial nerve with surrounding muscle (FIG. 10, J-M).
# To test the affinity of selected phage display peptides for binding to human nerves, they were chemically synthesized by solid-phase synthesis and labeled with fluorescein at the C-terminus. Peptides were topically applied to sections of surgically harvested human sural nerve and temporalis muscle to determine nerve to muscle contrast for selected peptides and controls (FIG. 23). […] To quantify differential binding to nerve versus muscle, fluorescence signal intensity was measured for ROIs from the perineurium of select nerves and human temporalis muscle.
# To enhance and attempt to determine the core binding domain of HNP401, systematic deletion of two amino acids from the C or N terminus was performed (see, for example, FIG. 30) followed by binding analysis on human sural nerve sections (FIG. 20). In each case nerve binding and signal intensity was normalized to the parent FAM-HNP401 peptide (FIG. 20J).
# Image J was used to analyze and compare images acquired using the confocal microscope and the Lumar dissecting scope. For each experimental set where probes were compared, we kept the acquisition parameters identical so as to directly compare the data obtained. […] All raw image files for a given experimental cohort were loaded at the same time into Image J as 16-bit tiff images. We then levelled the image for tissue treated with FAM-HNP401. Once these levels were set, the settings are propagated to all images in one step using Image J. The brightest image is set as the benchmark for all other images in the cohort to avoid saturating when the leveling is propagated.
# [1] = Stability of peptides in ex-vivo human plasma (LC-MS); details: 37° C., 5 min vs 2 hours
# Method: FIGS. 28A-28F: Stability of peptides in ex-vivo human plasma and cerebrospinal fluid from rats. […] An equal volume of 1:1 acetonitrile:water with 2% acetic acid is added to precipitate the protein matter, supernatant is extracted for analysis by LC-MS on a C18 reverse phase column with gradient of 9:1 H2O+0.05% TFA:Acetonitrile+0.05% TFA to 1:9 H2O+0.05% TFA:Acetonitrile+0.05% TFA in 20 min.
# The bladder was drained with a syringe and sutured to avoid spillage and contamination around prostate. […] Stability of FAM-HNP401 in human plasma at 5 minutes and 2 hours was determined by incubation of peptide dye conjugate in human serum prior to analysis by mass spectrometry.
# [2] = system: autonomic nerves isolated from human prostate glands; assay: Topical application on sections of nerves from human prostate gland; format: binding; details: topical 100 μM, 10 μm sections, two patients
# Method: FAM-HNP401 and FAM-NP41 were then tested topically for binding to autonomic nerves, isolated from excised prostate glands of two human patients (FIGS. 12 and 13). […] Labelled fiber were confirmed as nerve using anti-neurofilament antibody SMI312 (red) and DAPI (blue) to show nuclear labeling (FIG. 12C). H&E staining was also done to confirm label tissue as nerve (FIG. 12D). Similar staining was obtained for peripheral sensory anti-brachial cutaneous nerve isolated from a human arm (FIG. 12E-H).
# FAM-HNP401 and FAM-NP41 were tested for binding to autonomic nerves, isolated from the prostate glands of two human patients (FIGS. 19 and 29). […] Quantitation was not done because only 2 patient samples were available for testing as nerve resection during radical prostatectomy is only performed in instances of gross capsular invasion. Labelled fibers were confirmed as nerve using anti-neurofilament antibody SMI312 (red) with DAPI (blue) to show nuclear labeling (FIG. 19C). H&E staining also confirmed label tissue as nerve by histology (FIG. 19D). […] Similar staining using FAM-HNP401 was obtained for another sensory nerve (anti-brachial cutaneous) isolated from human arm showing the broad nerve binding activity of HNP401 (FIGS. 19E-H).
# mouse facial nerve = assay: Topical application on ex-vivo mouse facial nerve with surrounding muscle; format: binding; details: topical 375 and 100 μM, ex-vivo tissue
# [3] = system: rat prostate cavernosal nerve; assay: In-vivo labelling of rat prostate and sciatic nerve; details: i.v., FAM-labelled peptide
# Method: FIG. 6: Fluorescent labeling of rat prostate cavernosal nerve in live rats.
# Either 150 or 450 nmoles nmoles of fluorescein labeled synthetic peptides were injected intravenously into mice. After a 2 hour waiting period for washout of nonspecific binding, mice were anesthetized and skin incisions were made over the dorsal surface of the hind legs to expose the sciatic nerve. Brightfield and fluorescent images were obtained with a dissecting microscope using Metamorph software (FIG. 1). Quantitation of fluorescence of nerves and adjacent non-nerve tissue was performed with Image J (FIG. 2). Peptides were also topically applied to human nerve sections. […]
# Following anesthesia with intra-peritoneal injection of ketamine (80 mg/kg) and midazolam (40 mg/kg), FAM-NP41 or its variants were administered into mice retro-orbitally. […] The autonomic nerve along the cavernosal vessel in the prostate was imaged and recorded using a custom-made surgical imaging system. This system is a modified from Olympus MVX10 scope capable of hi-resolution fluorescence, RGB reflectance and realtime overlay with zoom from 0.6 to 5.7 cm field of view. ImageJ was used for quantitative analysis of nerve contrast for each peptide dye conjugate tested. Images of autonomic nerve in prostate were selected from the recorded files and magnified 300-400% prior to selection of ROI and measurement. […]
# [4] = Mass spectroscopy analysis of urine after injection of nerve binding peptides
# [5] = system: human laryngeal nerve sections; assay: Dose response of FAM-HNP401 by topical application on human nerve sections, confocal; details: low concentration (10 μM)
# Method: Determination of optimal dose response by topical application of FAM-HNP401 on human laryngeal nerve sections at final concentration of 375 μM (A), 100 μM (B), 50 μM (C), 10 μM (D) and 1 μM (E), imaged with confocal microscopy with identical parameters and levelled equally for comparison. **brightened 2 fold for viewing.
# Dose response data set of FAM-HNP401 on human nerve tissue (FIGS. 25:A-E) was acquired with 488 nm laser line, 10 μm sections on glass at 10× magnification, 0.45 NA air objective lens. Gain set to 40, power set to 3% of laser power, pixel dwell value of 1.2 μs, aperture size of 1.1 μm and a pixel size of 0.3 μm/px with a 2 k by 2 k size image.
# Human peripheral nerves (typically sural) were obtained from patients undergoing nerve resection procedures. Human nerves from prostate gland of two patients were acquired under Moores Cancer Centre Biorepository IRB protocol number 090401. Tissue were sectioned and mounted on glass slides or Cryojane tape. Tissue sections were placed in a humidifier chamber for 30 min before application of the peptide solution. Peptides were diluted to appropriate concentration in 0.5×HBSS prior to topical application. 50 μl of peptide solution of with known concentration (1 μM to 375 μM) were applied to 10 μm nerve sections on tape or slides and incubated for 30 minutes in a humidifier chamber. After incubation with peptide nerve sections were washed with twice with 0.5×HBSS and once with 1×PBS. A cover-slip was applied and slides were imaged immediately on either a Zeiss Lumar dissecting scope of Nikon A1 confocal microscope. For confocal imaging tissue sections of 10 μm thickness were imaged with 488 nm laser excitation 515 (25) and a 10× air objective and a 0.26 µm/pixel size.
compound,measurement,setting,value
CC(=O)N[C@@H](CO)C(=O)NCC(=O)N[C@@H](CCC(N)=O)C(=O)N[C@H](C(=O)N1CCC[C@H]1C(=O)N[C@@H](Cc1c[nH]c2ccccc12)C(=O)N[C@@H](CCC(=O)O)C(=O)N[C@@H](CCC(=O)O)C(=O)N1CCC[C@H]1C(=O)N[C@@H](Cc1ccc(O)cc1)C(=O)N[C@@H](Cc1ccc(O)cc1)C(=O)N[C@H](C(=O)N[C@H](C(=O)N[C@@H](CCCCN)C(=O)N[C@@H](CCCCN)C(=O)N[C@@H](CO)C(=O)N[C@@H](CO)C(=O)NCC(=O)NCC(=O)N[C@@H](CSC1CC(=O)N(c2ccc3c(c2)C(=O)OC32c3ccc(O)cc3Oc3cc(O)ccc32)C1=O)C(N)=O)C(C)C)C(C)C)C(C)C (stereo partly shown) [FAM-HNP401] (Ac-SGQVPWEEPYYVVKKSSGGC(Fluorescein(5-Mal))-NH2),nerve to surrounding muscle contrast,"sciatic nerve; imaged 2 h post injection, SKH1 mice",5.79±0.81
same,increase in sciatic nerve fluorescence intensity compared to NP41,sciatic nerve; mice,2.3 fold
same,signal intensity for in-vivo binding to mouse sciatic nerve compared to FAM-NP41,sciatic nerve; mice,2.3 ×
same,nerve to muscle contrast,"human sural nerve; human sural nerve vs temporalis muscle, topical 100 μM, n=4",3.03±0.57
same,fluorescent signal intensity of perineurium,"human sural nerve; topical 100 μM, 10 μm unfixed sections, confocal, n=4",1374.44±425.96
same,nerve binding and nerve to muscle contrast (words),"human sural nerve; topical 100 μM, human nerve and temporalis muscle sections",highest contrast
same,fluorescent signal intensity compared to FAM-NP41,"human sural nerve; topical 100 μM, human sural nerve",10.9 ×
same,signal for binding human nerve compared to FAM-NP41,"human sural nerve; topical, human nerve",10 fold
same,stability in human plasma,[1],remain intact; also recorded: stable
same,fluorescent signal in human autonomic (cavernosal) nerves compared to FAM-NP41,[2],significantly higher fluorescent signal
same,labeling of mouse facial nerve versus surrounding muscle,mouse facial nerve,poor contrast; also recorded: did not perform as well as FAM-NP41
same,fluorescent labeling of rat prostate and sciatic nerve in live rats,[3],highlighted
same,metabolism of peptide detected in urine,[4],partially metabolized
same,structures of nerve bound (confocal imaging),[5],binding of peptide to non-axonal structural components of nerve; also recorded: excluded from axons
same,structures of nerve bound (confocal imaging),[5]; listed as FAM-HMP401,"does not bind axons, but preferentially binds the perineurium"
same,structures of nerve bound (confocal imaging),[5]; listed as HNP401-FAM,"binds epineurium, perineurium and endonerium but not axons"
